Results as given in ChEMBL document CHEMBL3817752, “Antimycobacterial activity of new N(1)-[1-[1-aryl-3-[4-(1H-imidazol-1-yl)phenyl]-3-oxo]propyl]-pyridine-2-carboxamidrazone derivatives” (Bioorg Med Chem Lett, 2016).
≈ marks a conversion by molar mass, not a printed value. Calls of active or inactive are those of the source. The rule behind the calls is not given here.

How the values were obtained:
Staphylococcus aureus [1] = assay: Antimicrobial activity against Staphylococcus aureus ATCC 25923 at 30 ug per disk after 18 to 24 hrs by agar diffusion assay; assay type: functional; conditions: read-out: DIZ
Escherichia coli [2] = assay: Antimicrobial activity against Escherichia coli ATCC 25922 at 30 ug per disk after 18 to 24 hrs by agar diffusion assay; assay type: functional; conditions: read-out: DIZ
Staphylococcus aureus [3] = assay: Antimicrobial activity against Staphylococcus aureus ATCC 25923 at 20 ug per disk after 18 to 24 hrs by agar diffusion assay; assay type: functional; conditions: read-out: DIZ
[4] = target: T1, Sterol 14alpha-demethylase (Mycobacterium tuberculosis) (UniProt P9WPP9); assay: Binding affinity to N-terminal His-tagged Mycobacterium tuberculosis H37Rv ATCC 25618 CYP51 expressed in Escherichia coli Rosetta (DE3) by spectrophotometric analysis
T1 sequence (whole entry): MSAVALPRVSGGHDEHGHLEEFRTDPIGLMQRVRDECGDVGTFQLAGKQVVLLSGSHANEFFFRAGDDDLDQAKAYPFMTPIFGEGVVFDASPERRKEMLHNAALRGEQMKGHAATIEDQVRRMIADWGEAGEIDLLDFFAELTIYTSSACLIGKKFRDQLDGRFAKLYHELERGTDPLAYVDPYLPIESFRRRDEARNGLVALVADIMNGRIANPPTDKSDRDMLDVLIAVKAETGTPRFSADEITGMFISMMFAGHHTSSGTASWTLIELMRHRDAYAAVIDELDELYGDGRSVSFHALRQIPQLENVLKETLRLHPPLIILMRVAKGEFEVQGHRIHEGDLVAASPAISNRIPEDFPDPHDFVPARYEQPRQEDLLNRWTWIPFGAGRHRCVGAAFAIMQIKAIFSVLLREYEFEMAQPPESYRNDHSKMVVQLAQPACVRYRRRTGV

Escherichia coli [5] = assay: Antimicrobial activity against Escherichia coli ATCC 25922 at 20 ug per disk after 18 to 24 hrs by agar diffusion assay; assay type: functional; conditions: read-out: DIZ
[6] = test system: Mycobacterium intracellulare; assay: Antimycobacterial activity against Mycobacterium intracellulare NCTC 10425 after 7 days by resazurin microtiter assay; assay type: functional; conditions: NCTC 10425, 168 h
[7] = Cytotoxicity against African green monkey Vero cells after 72 hrs by MTT assay; assay type: cell-based; conditions: chlorocebus sabaeus
Candida albicans [8] = assay: Antimicrobial activity against Candida albicans 685 clinical isolate at 20 ug per disk after 18 to 24 hrs by agar diffusion assay; assay type: functional; conditions: read-out: DIZ
[9] = test system: Mycobacterium tuberculosis; assay: Antimycobacterial activity against Mycobacterium tuberculosis H37Ra […] after 7 days by resazurin microtiter assay; assay type: functional; conditions: 168 h
Mycobacterium gordonae = assay: Antimycobacterial activity against Mycobacterium gordonae NCTC 10267 after 7 days by resazurin microtiter assay; assay type: functional; conditions: NCTC 10267, 168 h
Mycobacterium kansasii = assay: Antimycobacterial activity against Mycobacterium kansasii NCTC 10268 after 7 days by resazurin microtiter assay; assay type: functional; conditions: NCTC 10268, 168 h
Mycobacterium avium = assay: Antimycobacterial activity against Mycobacterium avium NCTC 08559 after 7 days by resazurin microtiter assay; assay type: functional; conditions: NCTC 08559, 168 h
[10] = test system: Mycobacterium scrofulaceum; assay: Antimycobacterial activity against Mycobacterium scrofulaceum NCTC 10803 after 7 days by resazurin microtiter assay; assay type: functional; conditions: 168 h
Mycobacterium marinum = assay: Antimycobacterial activity against Mycobacterium marinum CIP 6423 after 7 days by resazurin microtiter assay; assay type: functional; conditions: CIP 6423, 168 h
Candida albicans [11] = assay: Antimicrobial activity against Candida albicans 685 clinical isolate at 5 ug per disk after 18 to 24 hrs by agar diffusion assay; assay type: functional; conditions: read-out: DIZ
[12] = Selectivity index, ratio of CC50 for African green monkey Vero cells to MIC for Mycobacterium tuberculosis H37Ra […]; assay type: toxicity, cell-based; conditions: read-out: Selectivity Index

Row | Compound | zone of inhibition at 30 µg/disc (Staphylococcus aureus [1]) [mm] | zone of inhibition at 30 µg/disc (Escherichia coli [2]) [mm] | zone of inhibition at 20 µg/disc (Staphylococcus aureus [3]) [mm] | Activity [4] | zone of inhibition at 20 µg/disc (Escherichia coli [5]) [mm] | MIC [6] [µM] | CC50 at 72 h [7] [µM] | zone of inhibition at 20 µg/disc (Candida albicans [8]) [mm] | MIC [9] [µM] | MIC (Mycobacterium gordonae) [µM] | MIC (Mycobacterium kansasii) [µM] | MIC (Mycobacterium avium) [µM] | MIC [10] [µM] | MIC (Mycobacterium marinum) [µM] | zone of inhibition at 5 µg/disc (Candida albicans [11]) [mm] | selectivity ratio [12]
1 | CC(=O)OCC1=C(C(=O)O)N2C(=O)[C@@H](NC(=O)Cc3cccs3)[C@H]2SC1 [CEPHALOTHIN] | 31 | 11 | – | – | – | – | – | – | – | – | – | – | – | – | – | –
2 | N/C(=N/NC(CC(=O)c1ccc(-n2ccnc2)cc1)c1cccc([N+](=O)[O-])c1)c1ccccn1 (stereo not given) | – | – | 13 | inactive | 5 | > 140 | 28.7 | 10 | 4.4 (≈ 2 µg/mL) | 8.8 (≈ 4.01 µg/mL) | 8.8 (≈ 4.01 µg/mL) | 140 (≈ 63.8 µg/mL) | 8.8 (≈ 4.01 µg/mL) | 35.1 (≈ 16 µg/mL) | – | –
3 | NNC(=O)c1ccncc1 [ISONIAZID] | – | – | – | – | – | > 467 | > 7000 | – | 0.9 (≈ 0.123 µg/mL) | 116 (≈ 15.9 µg/mL) | – | 116 (≈ 15.9 µg/mL) | 116 (≈ 15.9 µg/mL) | 116 (≈ 15.9 µg/mL) | – | –
4 | N/C(=N/NC(CC(=O)c1ccc(-n2ccnc2)cc1)c1ccc(Cl)cc1Cl)c1ccccn1 (stereo not given) | – | – | 17 | inactive | 6 | 33.3 (≈ 16 µg/mL) | 27.8 | 8 | 9 (≈ 4.31 µg/mL) | 9 (≈ 4.31 µg/mL) | 4.2 (≈ 2.01 µg/mL) | 33.3 (≈ 16 µg/mL) | 16.7 (≈ 8.01 µg/mL) | 33.3 (≈ 16 µg/mL) | – | –
5 | N/C(=N/NC(CC(=O)c1ccc(-n2ccnc2)cc1)c1ccccc1Br)c1ccccn1 (stereo not given) | – | – | 19 | inactive | 5 | 131 (≈ 64.1 µg/mL) | 29 | 8 | 32.7 (≈ 16 µg/mL) | 8.2 (≈ 4.01 µg/mL) | 16.3 (≈ 7.98 µg/mL) | 65.4 (≈ 32 µg/mL) | 16.3 (≈ 7.98 µg/mL) | 16.3 (≈ 7.98 µg/mL) | – | –
6 | C[C@@H]1[C@H](O)[C@@H](C)/C=C/C=C/C=C/C=C/C=C/C=C/C=C/[C@H](O[C@@H]2O[C@H](C)[C@@H](O)[C@H](N)[C@@H]2O)C[C@@H]2O[C@](O)(C[C@@H](O)C[C@@H](O)[C@H](O)CC[C@@H](O)C[C@@H](O)CC(=O)O[C@H]1C)C[C@H](O)[C@H]2C(=O)O [AMPHOTERICIN B] | – | – | – | – | – | – | – | – | – | – | – | – | – | – | 16 | –
7 | N/C(=N/NC(CC(=O)c1ccc(-n2ccnc2)cc1)c1cccc(F)c1)c1ccccn1 (stereo not given) | – | – | 16 | inactive | 7 | 74.7 (≈ 32 µg/mL) | 26.5 | 11 | 4.7 (≈ 2.01 µg/mL) | 2.3 (≈ 0.985 µg/mL) | 9.3 (≈ 3.98 µg/mL) | 74.7 (≈ 32 µg/mL) | 9.3 (≈ 3.98 µg/mL) | 18.7 (≈ 8.01 µg/mL) | – | –
8 | N/C(=N/NC(CC(=O)c1ccc(-n2ccnc2)cc1)c1ccccc1Cl)c1ccccn1 (stereo not given) | – | – | 20 | inactive | 6 | 144 (≈ 64.1 µg/mL) | 53.2 | 7 | 36 (≈ 16 µg/mL) | 18 (≈ 8.01 µg/mL) | 18 (≈ 8.01 µg/mL) | 72 (≈ 32 µg/mL) | 18 (≈ 8.01 µg/mL) | 18 (≈ 8.01 µg/mL) | – | –
9 | N/C(=N/NC(CC(=O)c1ccc(-n2ccnc2)cc1)c1cccc(Cl)c1)c1ccccn1 (stereo not given) | – | – | 22 | inactive | 7 | 72 (≈ 32 µg/mL) | 68.6 | 11 | 18 (≈ 8.01 µg/mL) | 4.5 (≈ 2 µg/mL) | 9 (≈ 4 µg/mL) | 72 (≈ 32 µg/mL) | 18 (≈ 8.01 µg/mL) | 18 (≈ 8.01 µg/mL) | – | –
10 | N/C(=N/NC(CC(=O)c1ccc(-n2ccnc2)cc1)c1cccc(Br)c1)c1ccccn1 (stereo not given) | – | – | 19 | inactive | 8 | 131 (≈ 64.1 µg/mL) | 51.3 | 13 | 16.3 (≈ 7.98 µg/mL) | 2 (≈ 0.979 µg/mL) | 16.3 (≈ 7.98 µg/mL) | 131 (≈ 64.1 µg/mL) | 32.7 (≈ 16 µg/mL) | 16.3 (≈ 7.98 µg/mL) | – | –
11 | N/C(=N/NC(CC(=O)c1ccc(-n2ccnc2)cc1)c1ccccc1[N+](=O)[O-])c1ccccn1 (stereo not given) | – | – | 13 | inactive | 6 | 140 (≈ 63.8 µg/mL) | 48 | 4 | 8.8 (≈ 4.01 µg/mL) | 8.8 (≈ 4.01 µg/mL) | 17.6 (≈ 8.02 µg/mL) | 70.3 (≈ 32 µg/mL) | 8.8 (≈ 4.01 µg/mL) | 35.1 (≈ 16 µg/mL) | – | –
12 | N/C(=N/NC(CC(=O)c1ccc(-n2ccnc2)cc1)c1ccc(Cl)cc1)c1ccccn1 (stereo not given) | – | – | 20 | inactive | 8 | 72 (≈ 32 µg/mL) | 78.8 | 9 | 9 (≈ 4 µg/mL) | 4.5 (≈ 2 µg/mL) | 9 (≈ 4 µg/mL) | 72 (≈ 32 µg/mL) | 18 (≈ 8.01 µg/mL) | 18 (≈ 8.01 µg/mL) | – | –
13 | N/C(=N/NC(CC(=O)c1ccc(-n2ccnc2)cc1)c1ccccc1F)c1ccccn1 (stereo not given) | – | – | 14 | inactive | 7 | 74.7 (≈ 32 µg/mL) | 62.1 | 5 | 17.6 (≈ 7.54 µg/mL) | 4.7 (≈ 2.01 µg/mL) | 18.7 (≈ 8.01 µg/mL) | 74.7 (≈ 32 µg/mL) | 18.7 (≈ 8.01 µg/mL) | 18.7 (≈ 8.01 µg/mL) | – | –
14 | N/C(=N/NC(CC(=O)c1ccc(-n2ccnc2)cc1)c1ccc(Br)cc1)c1ccccn1 (stereo not given) | – | – | 20 | inactive | 6 | 131 (≈ 64.1 µg/mL) | 298 | 8 | 16.3 (≈ 7.98 µg/mL) | 2 (≈ 0.979 µg/mL) | 4.1 (≈ 2.01 µg/mL) | 131 (≈ 64.1 µg/mL) | 16.3 (≈ 7.98 µg/mL) | 8.2 (≈ 4.01 µg/mL) | – | 18
15 | N/C(=N/NC(CC(=O)c1ccc(-n2ccnc2)cc1)c1ccccc1)c1ccccn1 (stereo not given) | – | – | 14 | inactive | 7 | 78 (≈ 32 µg/mL) | 63.5 | 5 | 19.5 (≈ 8 µg/mL) | 9.7 (≈ 3.98 µg/mL) | 19.5 (≈ 8 µg/mL) | 78 (≈ 32 µg/mL) | 19.5 (≈ 8 µg/mL) | 19.5 (≈ 8 µg/mL) | – | –
16 | Clc1ccc(COC(Cn2ccnc2)c2ccc(Cl)cc2Cl)cc1 (stereo not given) | – | – | – | Active | – | – | – | – | – | – | – | – | – | – | – | –
17 | N/C(=N/NC(CC(=O)c1ccc(-n2ccnc2)cc1)c1ccc(F)cc1)c1ccccn1 (stereo not given) | – | – | 20 | inactive | 6 | 74.7 (≈ 32 µg/mL) | 78.8 | 6 | 9.3 (≈ 3.98 µg/mL) | 18.7 (≈ 8.01 µg/mL) | 9.3 (≈ 3.98 µg/mL) | 74.7 (≈ 32 µg/mL) | 18.7 (≈ 8.01 µg/mL) | 18.7 (≈ 8.01 µg/mL) | – | –
18 | N/C(=N/NC(CC(=O)c1ccc(-n2ccnc2)cc1)c1ccc([N+](=O)[O-])cc1)c1ccccn1 (stereo not given) | – | – | 13 | inactive | 5 | > 140 | 23.1 | 5 | 4.4 (≈ 2 µg/mL) | 8.8 (≈ 4.01 µg/mL) | 35.1 (≈ 16 µg/mL) | 140 (≈ 63.8 µg/mL) | 8.8 (≈ 4.01 µg/mL) | 35.1 (≈ 16 µg/mL) | – | –
